Test results from patent publication US6585996B1, “Lipid-soluble thiamine derivatives in the treatment of autism” (Westlake Laboratories, Inc., priority 2002, dated 2003).

What was measured:
children with autism = settings: a few children with autism
From the text: A few children with autism have been exposed to a dermal preparation since the study has been completed.

autistic children = settings: 10 subjects, 50 mg TTFD twice a day, rectal suppository, two months
Experimental: In a pilot study, ten autistic children, eight boys and two girls, were administered 50 mg of TTFD twice a day through a rectal suppository for a two-month trial period. All the patients were previously diagnosed with autism as defined by those in the field. Parents were asked to fill in a symptom check form to assess the symptoms of the autistic children by giving a numerical score as to severity.
Both forms are scored by computer and were designed by the Autism Research Institute specifically for research of this spectrum of disease. The first form, Form E2, is a diagnostic tool that allocates points on a symptomatic basis. The higher the score, the closer the patient comes to being considered a classic case of autism. The common form of autism that is occurring within the pilot test group seldom reaches the score that indicates classic autism, defined as the inability of a person to relate themself in the ordinary way to people and situations from the beginning of life.
The second form, the ATEC (Autism Treatment Evaluation Checklist) form, also allocates points on a symptomatic basis. […] In addition to completing the forms based on patient behavior, physiological changes were also measured.
Clinical improvement, as shown by the bars, is obtained by subtracting the final ATEC score from that calculated at the outset of the study.

CC(=C(CCO)SSCC1CCCO1)N(C=O)Cc1cnc(C)nc1N (stereo in doubt) [TTFD, thiamine tetrahydrofurfuryl disulfide]
Clinical condition with dermal preparation (children with autism): immediate improvement in the child's condition was noted | Subjects showing clinical improvement in their autistic disorder (autistic children): Eight of the 10 | Clinical results of oral versus rectal administration: does not appear to give as striking clinical results as rectal administration
